Reference: ChEMBL document CHEMBL4507319 (2021)

Legend:
[1] = biological target: Angiopoietin-1 receptor (Homo sapiens) (UniProt Q02763); settings: Compound concentration 1000.0 nM
[2] = biological target: Kappa-type opioid receptor (Homo sapiens) (UniProt P41145); settings: Compound concentration 10.0 uM
[3] = test system: Mast/stem cell growth factor receptor Kit (Homo sapiens), P10721 [V559D,T670I]; settings: Compound concentration 1000.0 nM
[4] = biological target: Ephrin type-B receptor 6 (Homo sapiens) (UniProt O15197); settings: Compound concentration 1000.0 nM
[5] = biological target: Misshapen-like kinase 1 (Homo sapiens) (UniProt Q8N4C8); settings: Compound concentration 1000.0 nM
Misshapen-like kinase 1 (Homo sapiens), sequence (Q8N4C8 whole entry, looked up): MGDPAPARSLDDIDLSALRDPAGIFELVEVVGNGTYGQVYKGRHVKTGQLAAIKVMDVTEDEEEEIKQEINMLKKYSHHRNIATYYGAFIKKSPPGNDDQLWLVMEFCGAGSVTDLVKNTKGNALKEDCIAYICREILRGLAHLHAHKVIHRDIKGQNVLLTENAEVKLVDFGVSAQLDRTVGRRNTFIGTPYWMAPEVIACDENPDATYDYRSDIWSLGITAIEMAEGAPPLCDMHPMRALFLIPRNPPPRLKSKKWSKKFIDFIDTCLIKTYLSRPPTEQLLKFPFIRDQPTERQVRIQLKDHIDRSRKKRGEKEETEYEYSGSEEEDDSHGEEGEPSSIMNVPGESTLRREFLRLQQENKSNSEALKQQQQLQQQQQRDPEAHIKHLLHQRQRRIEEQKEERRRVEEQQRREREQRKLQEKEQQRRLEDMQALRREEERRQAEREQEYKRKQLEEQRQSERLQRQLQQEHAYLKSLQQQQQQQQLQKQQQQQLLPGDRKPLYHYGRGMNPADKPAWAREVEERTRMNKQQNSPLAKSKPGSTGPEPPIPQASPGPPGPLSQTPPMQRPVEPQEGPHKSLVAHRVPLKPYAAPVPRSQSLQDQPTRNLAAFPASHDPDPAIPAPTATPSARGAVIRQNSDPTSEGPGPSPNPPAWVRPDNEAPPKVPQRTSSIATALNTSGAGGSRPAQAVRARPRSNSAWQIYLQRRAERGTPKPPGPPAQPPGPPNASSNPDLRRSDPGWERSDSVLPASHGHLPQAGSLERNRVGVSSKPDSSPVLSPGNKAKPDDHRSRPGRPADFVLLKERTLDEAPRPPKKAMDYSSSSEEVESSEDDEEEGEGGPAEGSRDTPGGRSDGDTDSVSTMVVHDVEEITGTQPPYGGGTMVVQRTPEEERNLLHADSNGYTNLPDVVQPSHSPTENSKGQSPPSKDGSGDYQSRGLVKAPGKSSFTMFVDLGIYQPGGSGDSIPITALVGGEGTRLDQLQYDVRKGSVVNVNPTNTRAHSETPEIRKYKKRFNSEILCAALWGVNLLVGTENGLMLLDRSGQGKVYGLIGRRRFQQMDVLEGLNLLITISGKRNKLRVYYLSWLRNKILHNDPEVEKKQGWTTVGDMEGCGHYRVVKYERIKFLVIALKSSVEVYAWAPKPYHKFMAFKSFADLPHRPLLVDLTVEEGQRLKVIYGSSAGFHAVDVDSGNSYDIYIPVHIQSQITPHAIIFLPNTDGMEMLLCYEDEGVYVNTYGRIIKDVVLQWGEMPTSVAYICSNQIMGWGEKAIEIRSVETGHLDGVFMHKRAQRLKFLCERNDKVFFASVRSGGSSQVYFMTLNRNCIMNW

[6] = biological target: Cyclin-dependent kinase 17 (Homo sapiens) (UniProt Q00537); settings: Compound concentration 1000.0 nM
[7] = biological target: T1, Serine/threonine-protein kinase DCLK3 (Homo sapiens) (UniProt Q9C098); settings: Compound concentration 1000.0 nM
T1 sequence (whole entry): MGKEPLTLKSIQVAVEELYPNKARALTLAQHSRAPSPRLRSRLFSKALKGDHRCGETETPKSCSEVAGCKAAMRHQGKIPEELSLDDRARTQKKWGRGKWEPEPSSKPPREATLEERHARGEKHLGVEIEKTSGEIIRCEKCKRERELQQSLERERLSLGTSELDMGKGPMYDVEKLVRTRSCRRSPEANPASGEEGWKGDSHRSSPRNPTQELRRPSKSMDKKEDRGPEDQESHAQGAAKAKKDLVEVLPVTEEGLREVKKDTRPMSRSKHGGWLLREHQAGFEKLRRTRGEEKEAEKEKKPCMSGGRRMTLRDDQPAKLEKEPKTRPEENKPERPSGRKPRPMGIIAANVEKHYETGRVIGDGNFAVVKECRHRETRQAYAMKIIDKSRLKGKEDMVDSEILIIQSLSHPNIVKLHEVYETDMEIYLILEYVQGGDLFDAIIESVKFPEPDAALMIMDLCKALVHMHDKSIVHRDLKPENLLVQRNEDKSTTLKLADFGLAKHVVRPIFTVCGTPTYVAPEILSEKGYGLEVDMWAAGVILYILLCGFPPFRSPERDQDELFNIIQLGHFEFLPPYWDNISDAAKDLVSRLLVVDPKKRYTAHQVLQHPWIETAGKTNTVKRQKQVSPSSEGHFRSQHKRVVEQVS

[8] = biological target: 5-hydroxytryptamine receptor 1E (Homo sapiens) (UniProt P28566); settings: Compound concentration 10.0 uM
5-hydroxytryptamine receptor 1E (Homo sapiens), sequence (P28566 whole entry): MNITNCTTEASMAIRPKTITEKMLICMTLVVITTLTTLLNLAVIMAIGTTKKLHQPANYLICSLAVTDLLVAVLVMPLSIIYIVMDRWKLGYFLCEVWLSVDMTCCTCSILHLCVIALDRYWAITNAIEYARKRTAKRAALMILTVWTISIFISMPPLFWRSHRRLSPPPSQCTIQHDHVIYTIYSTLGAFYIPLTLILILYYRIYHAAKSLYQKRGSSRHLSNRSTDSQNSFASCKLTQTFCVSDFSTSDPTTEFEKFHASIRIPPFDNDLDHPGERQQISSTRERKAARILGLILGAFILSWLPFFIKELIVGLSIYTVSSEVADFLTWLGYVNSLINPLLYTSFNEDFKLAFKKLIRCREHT

[9] = test system: ALK tyrosine kinase receptor (Homo sapiens), Q9UM73 [C1156Y]; settings: Compound concentration 1000.0 nM
ALK tyrosine kinase receptor (Homo sapiens), Q9UM73 [C1156Y], sequence (Q9UM73 whole entry C1156Y, looked up): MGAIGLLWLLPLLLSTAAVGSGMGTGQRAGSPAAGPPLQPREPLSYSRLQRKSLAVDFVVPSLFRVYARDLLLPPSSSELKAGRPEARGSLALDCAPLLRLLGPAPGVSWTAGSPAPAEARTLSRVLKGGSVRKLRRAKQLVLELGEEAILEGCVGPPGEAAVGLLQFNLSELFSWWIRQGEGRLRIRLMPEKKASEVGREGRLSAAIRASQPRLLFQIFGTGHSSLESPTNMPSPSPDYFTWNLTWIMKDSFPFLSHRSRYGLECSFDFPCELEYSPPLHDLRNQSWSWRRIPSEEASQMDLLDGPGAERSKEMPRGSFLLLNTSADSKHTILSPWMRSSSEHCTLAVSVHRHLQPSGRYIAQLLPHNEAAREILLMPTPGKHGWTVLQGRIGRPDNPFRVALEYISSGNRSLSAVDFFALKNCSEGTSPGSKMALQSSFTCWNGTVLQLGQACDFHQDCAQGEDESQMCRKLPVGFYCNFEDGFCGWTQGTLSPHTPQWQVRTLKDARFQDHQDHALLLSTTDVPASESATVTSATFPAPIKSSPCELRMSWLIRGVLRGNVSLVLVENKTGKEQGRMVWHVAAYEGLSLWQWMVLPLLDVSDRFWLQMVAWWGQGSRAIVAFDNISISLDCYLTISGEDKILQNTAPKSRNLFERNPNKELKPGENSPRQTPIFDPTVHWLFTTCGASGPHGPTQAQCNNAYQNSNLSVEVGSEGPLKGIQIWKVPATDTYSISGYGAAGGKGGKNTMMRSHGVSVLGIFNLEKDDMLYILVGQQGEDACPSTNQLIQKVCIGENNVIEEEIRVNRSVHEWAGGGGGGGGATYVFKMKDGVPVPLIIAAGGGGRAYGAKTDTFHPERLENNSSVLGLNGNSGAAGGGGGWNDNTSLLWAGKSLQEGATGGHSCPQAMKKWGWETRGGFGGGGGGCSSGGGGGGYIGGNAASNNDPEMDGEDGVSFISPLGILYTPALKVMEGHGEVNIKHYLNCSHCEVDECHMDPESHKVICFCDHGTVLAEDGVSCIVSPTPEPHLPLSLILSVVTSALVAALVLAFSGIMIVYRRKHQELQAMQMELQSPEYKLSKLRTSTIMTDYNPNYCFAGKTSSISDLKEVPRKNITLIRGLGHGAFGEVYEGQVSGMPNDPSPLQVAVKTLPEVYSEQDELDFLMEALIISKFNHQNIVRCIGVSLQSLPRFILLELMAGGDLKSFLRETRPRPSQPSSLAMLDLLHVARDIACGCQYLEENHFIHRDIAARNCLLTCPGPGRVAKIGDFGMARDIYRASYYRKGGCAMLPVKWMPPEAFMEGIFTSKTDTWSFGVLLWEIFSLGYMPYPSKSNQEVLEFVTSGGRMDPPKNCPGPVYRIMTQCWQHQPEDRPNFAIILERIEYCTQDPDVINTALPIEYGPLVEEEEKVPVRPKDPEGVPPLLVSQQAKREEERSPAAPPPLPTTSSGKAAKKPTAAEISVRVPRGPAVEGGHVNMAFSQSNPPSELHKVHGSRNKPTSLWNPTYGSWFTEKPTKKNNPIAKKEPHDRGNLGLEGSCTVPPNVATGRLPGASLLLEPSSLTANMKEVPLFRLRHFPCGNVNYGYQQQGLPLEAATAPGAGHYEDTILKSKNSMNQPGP

[10] = biological target: Atypical kinase COQ8B, mitochondrial (Homo sapiens) (UniProt Q96D53); settings: Compound concentration 1000.0 nM
[11] = biological target: T2, Ephrin type-B receptor 3 (Homo sapiens) (UniProt P54753); settings: Compound concentration 1000.0 nM
T2 sequence (whole entry): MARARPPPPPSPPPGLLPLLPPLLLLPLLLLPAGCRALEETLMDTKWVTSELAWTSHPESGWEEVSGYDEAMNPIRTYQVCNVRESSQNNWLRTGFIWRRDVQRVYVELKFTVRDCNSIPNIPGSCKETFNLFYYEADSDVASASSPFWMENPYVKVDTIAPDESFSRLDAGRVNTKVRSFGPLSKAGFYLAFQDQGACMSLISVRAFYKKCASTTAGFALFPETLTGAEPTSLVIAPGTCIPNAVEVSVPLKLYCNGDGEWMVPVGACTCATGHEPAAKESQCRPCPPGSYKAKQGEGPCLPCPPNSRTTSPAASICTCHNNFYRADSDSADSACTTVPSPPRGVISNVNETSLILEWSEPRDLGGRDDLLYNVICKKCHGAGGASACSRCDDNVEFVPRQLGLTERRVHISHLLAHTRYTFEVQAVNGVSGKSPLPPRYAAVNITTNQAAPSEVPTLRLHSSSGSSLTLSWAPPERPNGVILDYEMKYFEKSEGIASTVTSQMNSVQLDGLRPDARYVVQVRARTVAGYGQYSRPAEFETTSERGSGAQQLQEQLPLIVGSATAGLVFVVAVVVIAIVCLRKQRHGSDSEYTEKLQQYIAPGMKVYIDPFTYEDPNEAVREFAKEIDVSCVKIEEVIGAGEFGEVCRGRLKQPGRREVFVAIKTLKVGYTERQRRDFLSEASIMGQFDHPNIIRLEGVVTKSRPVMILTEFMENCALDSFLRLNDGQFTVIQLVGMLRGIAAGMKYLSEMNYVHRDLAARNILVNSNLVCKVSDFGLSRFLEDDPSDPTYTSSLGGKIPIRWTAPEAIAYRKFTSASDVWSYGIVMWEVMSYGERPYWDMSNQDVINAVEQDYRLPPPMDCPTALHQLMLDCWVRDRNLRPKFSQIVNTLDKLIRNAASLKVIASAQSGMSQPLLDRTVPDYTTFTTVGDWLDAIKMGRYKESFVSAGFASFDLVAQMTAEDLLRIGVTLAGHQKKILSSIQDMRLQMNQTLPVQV

[12] = biological target: Alpha-1B adrenergic receptor (Homo sapiens) (UniProt P35368); settings: Compound concentration 10.0 uM
[13] = biological target: Serine/threonine-protein kinase 32B (Homo sapiens) (UniProt Q9NY57); settings: Compound concentration 1000.0 nM
[14] = biological target: Serine/threonine-protein kinase 35 (Homo sapiens) (UniProt Q8TDR2); settings: Compound concentration 1000.0 nM
Serine/threonine-protein kinase 35 (Homo sapiens), sequence (Q8TDR2 whole entry): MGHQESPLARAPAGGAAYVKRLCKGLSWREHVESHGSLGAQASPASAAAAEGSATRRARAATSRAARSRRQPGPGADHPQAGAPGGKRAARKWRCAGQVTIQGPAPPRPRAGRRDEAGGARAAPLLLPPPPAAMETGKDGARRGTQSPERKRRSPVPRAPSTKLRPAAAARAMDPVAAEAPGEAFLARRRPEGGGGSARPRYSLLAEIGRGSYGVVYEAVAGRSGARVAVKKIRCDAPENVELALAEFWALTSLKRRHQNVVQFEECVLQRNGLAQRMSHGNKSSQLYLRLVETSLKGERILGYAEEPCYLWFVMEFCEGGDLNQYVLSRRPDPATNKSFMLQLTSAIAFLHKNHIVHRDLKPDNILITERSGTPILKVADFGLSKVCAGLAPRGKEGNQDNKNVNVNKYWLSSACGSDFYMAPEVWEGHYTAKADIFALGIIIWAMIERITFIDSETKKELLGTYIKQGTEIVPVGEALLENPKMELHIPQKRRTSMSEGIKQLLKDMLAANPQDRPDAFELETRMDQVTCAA

[15] = biological target: 5-hydroxytryptamine receptor 1A (Homo sapiens) (UniProt P08908); settings: Compound concentration 10.0 uM
[16] = biological target: Mitogen-activated protein kinase kinase kinase 12 (Homo sapiens) (UniProt Q12852); settings: Compound concentration 1000.0 nM
Mitogen-activated protein kinase kinase kinase 12 (Homo sapiens), sequence (Q12852 whole entry): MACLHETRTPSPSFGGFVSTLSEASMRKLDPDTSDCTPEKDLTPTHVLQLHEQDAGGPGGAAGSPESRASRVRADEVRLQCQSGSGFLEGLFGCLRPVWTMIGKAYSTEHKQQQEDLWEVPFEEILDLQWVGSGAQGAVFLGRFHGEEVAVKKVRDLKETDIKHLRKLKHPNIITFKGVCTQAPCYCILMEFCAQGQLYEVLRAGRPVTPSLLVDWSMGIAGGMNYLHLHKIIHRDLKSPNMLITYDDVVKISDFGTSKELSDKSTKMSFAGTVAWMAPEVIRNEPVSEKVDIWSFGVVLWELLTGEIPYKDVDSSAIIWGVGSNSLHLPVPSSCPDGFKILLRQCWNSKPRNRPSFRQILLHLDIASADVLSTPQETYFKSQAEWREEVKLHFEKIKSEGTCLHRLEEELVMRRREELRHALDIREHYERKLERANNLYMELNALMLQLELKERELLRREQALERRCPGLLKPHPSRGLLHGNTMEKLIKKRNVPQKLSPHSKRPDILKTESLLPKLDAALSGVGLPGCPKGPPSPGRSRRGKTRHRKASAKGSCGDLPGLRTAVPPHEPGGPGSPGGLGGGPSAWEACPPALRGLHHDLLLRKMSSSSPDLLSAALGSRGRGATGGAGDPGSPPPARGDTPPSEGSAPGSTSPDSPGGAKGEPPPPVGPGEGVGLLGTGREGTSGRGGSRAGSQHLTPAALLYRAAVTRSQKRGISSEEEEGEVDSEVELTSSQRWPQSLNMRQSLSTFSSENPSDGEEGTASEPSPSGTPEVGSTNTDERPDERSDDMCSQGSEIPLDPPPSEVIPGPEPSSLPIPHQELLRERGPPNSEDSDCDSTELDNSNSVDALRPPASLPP

[17] = biological target: TGF-beta receptor type-2 (Homo sapiens) (UniProt P37173); settings: Compound concentration 1000.0 nM
[18] = test system: Epidermal growth factor receptor (Homo sapiens), P00533 [UNDEFINED MUTATION]; settings: Compound concentration 1000.0 nM
[19] = biological target: Serine/threonine-protein kinase 33 (Homo sapiens) (UniProt Q9BYT3); settings: Compound concentration 1000.0 nM
[20] = biological target: Cyclin-dependent kinase-like 3 (Homo sapiens) (UniProt Q8IVW4); settings: Compound concentration 1000.0 nM
[21] = biological target: Maternal embryonic leucine zipper kinase (Homo sapiens) (UniProt Q14680); settings: Compound concentration 1000.0 nM
[22] = biological target: Protein kinase C delta type (Homo sapiens) (UniProt Q05655); settings: Compound concentration 1000.0 nM

Kappa-type opioid receptor (Homo sapiens), sequence (P41145 whole entry): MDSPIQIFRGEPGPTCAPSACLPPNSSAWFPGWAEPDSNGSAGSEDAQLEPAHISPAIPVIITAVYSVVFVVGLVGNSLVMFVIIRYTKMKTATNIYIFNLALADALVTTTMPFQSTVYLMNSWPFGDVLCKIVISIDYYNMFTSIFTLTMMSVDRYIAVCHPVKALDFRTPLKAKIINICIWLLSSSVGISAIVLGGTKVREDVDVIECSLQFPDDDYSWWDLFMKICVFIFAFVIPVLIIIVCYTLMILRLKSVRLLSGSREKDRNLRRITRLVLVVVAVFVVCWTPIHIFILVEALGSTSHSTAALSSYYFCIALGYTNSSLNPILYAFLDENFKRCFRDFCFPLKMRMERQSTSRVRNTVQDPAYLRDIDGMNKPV

| SMILES | residual activity [1] | inhibition [2] | residual activity [3] | residual activity [4] | residual activity [5] | residual activity [6] | residual activity [7] | inhibition [8] | residual activity [9] | residual activity [10] | residual activity [11] | inhibition [12] | residual activity [13] | residual activity [14] | inhibition [15] | residual activity [16] | residual activity [17] | residual activity [18] | residual activity [19] | residual activity [20] | other results |
| --- | --- | --- | --- | --- | --- | --- | --- | --- | --- | --- | --- | --- | --- | --- | --- | --- | --- | --- | --- | --- | --- |
| CC1=C(C#N)C(c2ccc3c(c2)c(NC(=O)c2ccccc2C)nn3C)C(C#N)=C(C)N1 [BAY-974] | 98% | 21.6% | 100% | 81% | 96% | 100% | 89% | 11.4% | 96% | 100% | 99% | -4.61% | 100% | 86% | 8.55% | 80% | 99% | 88% | 100% | 79% | residual activity [21]: 81%; residual activity [22]: 100% |
| CCc1ccccc1C(=O)Nc1n[nH]c2c(C)c(F)c(C3C(C#N)=C(C)N(C)C(C)=C3C#N)cc12 [BAY-3827] | 91% | 16.1% | 98% | 100% | 99% | 93% | 82% | 2.66% | 100% | 96% | 57% | -9.38% | 98% | 100% | 5.2% | 94% | 82% | 52% | 100% | 87% | residual activity [21]: 43%; residual activity [22]: 55% |
